Several values for one entry are separate records, joined by “and”; a condition that tells them apart may be missing. Identical values can stand only once.
Experiments:
Assay type in all cases: physicochemical
[1] = Residual amustaline by LCMS, Example 6 further example (direct donor collection into 2-container kit); conditions: donor blood collected into 2-container kit with CPDA-1; 22° C. 20 hours, second container 2-4 hours
Method: In another example, a 2-container kit comprising a treatment container and a filter set (e.g., described above) for introducing the amustaline/GSH (e.g., FIG. 8c) is used to collect from a donor 450 mL of whole blood into the first container that contains 63 mL of anticoagulant CPDA-1 (e.g., blood:anticoagulant ratio approximately 7:1), through the first inlet port. The collection line is then closed using a medical tubing clamp and the whole blood and anticoagulant solution are mixed. The pathogen inactivation compound amustaline and the quencher GSH are next added to the whole blood in the first container through the second port, to final concentrations of about 0.2 mM and 2.0 mM, respectively. The mixture of whole blood, PIC and quencher are incubated at 22° C. for 20 hours, followed by transfer of the mixture to the second container, clamping the tubing between the first and second containers, and incubating the mixture at 22° C. for a further 2-4 hours to provide a pathogen-inactivated whole blood unit.

[2] = Residual unreacted amustaline by LCMS, Example 3 (1-container vs 3-container kits, PVC1/PVC2/EVA bags)
Method: In another study, pathogen-inactivated whole blood was prepared using amustaline and GSH, in 1-container or 3-container kits of the present disclosure, with the 3-container kits comprising second and third bags (e.g., transfer/storage containers) from three different sources (e.g., different plastics materials). The three different transfer/storage containers included a 600 mL container, comprising Transfufol 3226 PVC film (“PVC1”), a second 600 mL container from a different manufacturer comprising Transfufol 3226 PVC film (“PVC2”), and a 750 mL container from Cerus, comprising EVA (ethylene-vinyl acetate) 1800 film (“EVA”). Six ABO-matched whole blood units in anticoagulant were pooled and split into seven units of ~450 mL each. The seven whole blood units were subjected to pathogen inactivation under conditions of no transfer step between containers (e.g., processing performed in the 1-container kit), or two transfer steps between containers (e.g., processing performed in the 3-container kits) of the indicated storage/transfer bag source (Table 4). Amustaline and GSH were added to the whole blood units as described previously by sterile docking of a filter set to the tubing of an input port of the first containers, which contained the whole blood. Unit 1 was treated with amustaline and GSH at 0.2 mM and 2.0 mM final concentrations, respectively, in the first container and incubated at 22° C., with samples taken at 18, 20, 22 and 24 hours, with no container transfers. For units 2-7, amustaline and GSH were added to the whole blood (0.2 mM and 2.0 mM final concentrations, respectively) in the first container, followed by transfer to the second container and incubation at 22° C. for 18 hours. At 18 hours, samples were taken along with transfer of the mixture to the third container and further incubation at 22° C., with additional sampling at 2 hour intervals (20, 22 and 24 hr).
All samples were analyzed by LCMS to determine the level of residual, unreacted amustaline as previously described. […] Following a second transfer (i.e., to third container) at 18 hr and further incubation at 22° C., residual amustaline was less than 1 nM at the 20 hr time point (i.e., 2 hours after bag transfer) for kits with two different container types and approaching 1 nM for kits with the third container type.

[3] = Residual unreacted amustaline by LCMS, Example 1 (treatment container; samples moved to separate containers); conditions: for Residual amustaline levels in pathogen-inactivated whole blood, 21 hr / Residual amustaline levels in pathogen-inactivated whole blood, 24 hr / Residual amustaline levels in pathogen-inactivated whole blood, 27 hr / Residual amustaline levels in pathogen-inactivated whole blood, 30 hr / Residual amustaline levels in pathogen-inactivated whole blood, 33 hr / Residual amustaline levels in pathogen-inactivated whole blood, 36 hr / Residual amustaline levels in pathogen-inactivated whole blood, 42 hr: no transfer, 0.2 mM amustaline, 2.0 mM GSH
Method: Pathogen inactivated whole blood was prepared with the pathogen inactivation compound, amustaline, and the quencher glutathione (Henschler et al., 2011, Transfus Med Hemother 38:33-42), in a kit of the present disclosure comprising a treatment container and tubing with a 3-way branch for introducing the amustaline/GSH (e.g., a “filter set”) comprising two in line filters for coupling (e.g., connecting) containers (e.g., syringes) of PIC and quencher, and the third branch coupled to (e.g., connected to) a sample diversion pouch (e.g., FIG. 3b). More specifically, four ABO-matched whole blood units containing anticoagulant were pooled and split into 8 half units (225 mL/half unit), added into each of eight treatment bags by connecting the pooled donor blood bag containing the whole blood to the treatment container by way of the tubing and using a tubing welder. Following transfer of the whole blood into the treatment containers, the pooled donor blood bag was removed by sealing and severing the tubing, and the filter set was sterile coupled using a tubing welder to the same input port of the treatment container via the remaining tubing. Amustaline and GSH were added to final concentrations of 0.2 mM and 2.0 mM, respectively. GSH was added first, followed by addition of amustaline, either within 5 minutes of GSH addition or after at least 15 minutes hold time, as indicated in Table 1. The mixtures were incubated at 22° C. (Units 1-4) or 25° C. (Units 5-8), with samples removed at the indicated times for analysis by liquid chromatography-mass spectrometry (LCMS) to determine the level of residual, unreacted amustaline.
Additionally, 50 mL of the mixture was removed from each of Units 2 and 8 at 24 hr and divided into two 25 mL samples in separate containers to compare storage at 4° C. versus room temperature, and for evaluation of residual amustaline levels at 2, 4, 6 and 8 hours of storage under those conditions (Table 2).

[4] = Units 1-2, amustaline added >15 min after GSH, 22° C. in treatment container
[5] = Units 3-4, amustaline added <5 min after GSH, 22° C. in treatment container
[6] = Units 5-6, amustaline added >15 min after GSH, 25° C. in treatment container
[7] = Units 7-8, amustaline added <5 min after GSH, 25° C. in treatment container

## O=C(CCNc1c2ccccc2nc2ccccc12)OCCN(CCCl)CCCl [amustaline]
[1]
  Residual amustaline levels in the pathogen-inactivated whole blood preparation: below 1 nm
[2]; 18 hr (at transfer to third container), Units 2-3, 3 bag kit, 2x transfer, PVC1 transfer bags, 22° C.
  Residual amustaline levels in pathogen-inactivated whole blood, 18 hr: 1.75 nM and 1.52 nM
[2]; 18 hr (at transfer to third container), Units 4-5, 3 bag kit, 2x transfer, PVC2 transfer bags, 22° C.
  Residual amustaline levels in pathogen-inactivated whole blood, 18 hr: 1.45 nM and 1.48 nM
[2]; 18 hr (at transfer to third container), Units 6-7, 3 bag kit, 2x transfer, EVA transfer bags, 22° C.
  Residual amustaline levels in pathogen-inactivated whole blood, 18 hr: 3.11 nM and 3.51 nM
[2]; 18 hr, Unit 1, 1 bag kit, no transfer, 22° C.
  Residual amustaline levels in pathogen-inactivated whole blood, 18 hr: 2.16 nM
[2]; 20 hr (2 hours after bag transfer at 18 hr), 3-container kits, third container type, 22° C.
  residual amustaline at the 20 hr time point, kits with the third container type: ~1 nM
[2]; 20 hr (2 hours after bag transfer at 18 hr), 3-container kits, two different container types, 22° C.
  residual amustaline at the 20 hr time point, kits with two container types: less than 1 nM
[2]; 20 hr (third container from 18 hr), Units 2-3, 3 bag kit, 2x transfer, PVC1 transfer bags, 22° C.
  Residual amustaline levels in pathogen-inactivated whole blood, 20 hr: 0.88 nM and 0.78 nM
[2]; 20 hr (third container from 18 hr), Units 4-5, 3 bag kit, 2x transfer, PVC2 transfer bags, 22° C.
  Residual amustaline levels in pathogen-inactivated whole blood, 20 hr: 0.85 nM and 0.87 nM
[2]; 20 hr (third container from 18 hr), Units 6-7, 3 bag kit, 2x transfer, EVA transfer bags, 22° C.
  Residual amustaline levels in pathogen-inactivated whole blood, 20 hr: 1.14 nM and 1.22 nM
[2]; 20 hr, Unit 1, 1 bag kit, no transfer, 22° C.
  Residual amustaline levels in pathogen-inactivated whole blood, 20 hr: 1.99 nM
[2]; 22 hr (third container from 18 hr), Units 2-3, 3 bag kit, 2x transfer, PVC1 transfer bags, 22° C.
  Residual amustaline levels in pathogen-inactivated whole blood, 22 hr: BLOQ (BLOQ = Below Limit of Quantitation (e.g., <0.75 nM))
[2]; 22 hr (third container from 18 hr), Units 4-5, 3 bag kit, 2x transfer, PVC2 transfer bags, 22° C.
  Residual amustaline levels in pathogen-inactivated whole blood, 22 hr: BLOQ (BLOQ = Below Limit of Quantitation (e.g., <0.75 nM))
[2]; 22 hr (third container from 18 hr), Units 6-7, 3 bag kit, 2x transfer, EVA transfer bags, 22° C.
  Residual amustaline levels in pathogen-inactivated whole blood, 22 hr: BLOQ (BLOQ = Below Limit of Quantitation (e.g., <0.75 nM))
[2]; 22 hr and 24 hr (4 or 6 hours after bag transfer), all samples in 3-container kits, three container types
  level of residual amustaline at 22 hr and 24 hr, 3-container kits: below the limit of quantitation
[2]; 22 hr, Unit 1, 1 bag kit, no transfer, 22° C.
  Residual amustaline levels in pathogen-inactivated whole blood, 22 hr: 1.46 nM
[2]; 24 hr (third container from 18 hr), Units 2-3, 3 bag kit, 2x transfer, PVC1 transfer bags, 22° C.
  Residual amustaline levels in pathogen-inactivated whole blood, 24 hr: BLOQ (BLOQ = Below Limit of Quantitation (e.g., <0.75 nM))
[2]; 24 hr (third container from 18 hr), Units 4-5, 3 bag kit, 2x transfer, PVC2 transfer bags, 22° C.
  Residual amustaline levels in pathogen-inactivated whole blood, 24 hr: BLOQ (BLOQ = Below Limit of Quantitation (e.g., <0.75 nM))
[2]; 24 hr (third container from 18 hr), Units 6-7, 3 bag kit, 2x transfer, EVA transfer bags, 22° C.
  Residual amustaline levels in pathogen-inactivated whole blood, 24 hr: BLOQ (BLOQ = Below Limit of Quantitation (e.g., <0.75 nM))
[2]; 24 hr, Unit 1, 1 bag kit, no transfer, 22° C.
  Residual amustaline levels in pathogen-inactivated whole blood, 24 hr: 1.54 nM
[3]; [4]
  Residual amustaline levels in pathogen-inactivated whole blood, 21 hr: 3.50 nM and 4.09 nM
  Residual amustaline levels in pathogen-inactivated whole blood, 24 hr: 2.62 nM and 2.66 nM
  Residual amustaline levels in pathogen-inactivated whole blood, 27 hr: 2.27 nM and 3.07 nM
  Residual amustaline levels in pathogen-inactivated whole blood, 30 hr: 2.11 nM and 2.95 nM
  Residual amustaline levels in pathogen-inactivated whole blood, 33 hr: 2.61 nM and 2.29 nM
  Residual amustaline levels in pathogen-inactivated whole blood, 36 hr: 1.62 nM and 1.38 nM
  Residual amustaline levels in pathogen-inactivated whole blood, 42 hr: 1.30 nM and 1.35 nM
[3]; [5]
  Residual amustaline levels in pathogen-inactivated whole blood, 21 hr: 3.45 nM and 3.85 nM
  Residual amustaline levels in pathogen-inactivated whole blood, 24 hr: 3.04 nM and 3.53 nM
  Residual amustaline levels in pathogen-inactivated whole blood, 27 hr: 3.29 nM and 3.7 nM
  Residual amustaline levels in pathogen-inactivated whole blood, 30 hr: 2.67 nM and 2.84 nM
  Residual amustaline levels in pathogen-inactivated whole blood, 33 hr: 2.16 nM and 2.22 nM
  Residual amustaline levels in pathogen-inactivated whole blood, 36 hr: 1.73 nM and 1.41 nM
  Residual amustaline levels in pathogen-inactivated whole blood, 42 hr: 1.66 nM and 1.57 nM
[3]; [6]
  Residual amustaline levels in pathogen-inactivated whole blood, 21 hr: 2.91 nM and 3.21 nM
  Residual amustaline levels in pathogen-inactivated whole blood, 24 hr: 2.44 nM and 2.58 nM
  Residual amustaline levels in pathogen-inactivated whole blood, 27 hr: 2.55 nM and 2.71 nM
  Residual amustaline levels in pathogen-inactivated whole blood, 30 hr: 2.04 nM and 2.49 nM
  Residual amustaline levels in pathogen-inactivated whole blood, 33 hr: 1.76 nM and 1.47 nM
  Residual amustaline levels in pathogen-inactivated whole blood, 36 hr: 1.89 nM and 1.87 nM
  Residual amustaline levels in pathogen-inactivated whole blood, 42 hr: 1.62 nM and 1.22 nM
[3]; [7]
  Residual amustaline levels in pathogen-inactivated whole blood, 21 hr: 3.43 nM and 4.15 nM
  Residual amustaline levels in pathogen-inactivated whole blood, 24 hr: 2.86 nM and 3.39 nM
  Residual amustaline levels in pathogen-inactivated whole blood, 27 hr: 2.74 nM and 3.30 nM
  Residual amustaline levels in pathogen-inactivated whole blood, 30 hr: 2.34 nM and 2.59 nM
  Residual amustaline levels in pathogen-inactivated whole blood, 33 hr: 1.64 nM and 2.83 nM
  Residual amustaline levels in pathogen-inactivated whole blood, 36 hr: 2.28 nM and 1.97 nM
[3]; Units 2 and 8, 25 mL sample removed at 24 hr into separate container, stored at RT, 2 hr of storage
  Residual amustaline levels in pathogen-inactivated whole blood, 2 hr: BLOQ (BLOQ = Below Limit of Quantitation (e.g., < 0.75 nM))
[3]; Units 2 and 8, 25 mL sample removed at 24 hr into separate container, stored at RT, 4 hr of storage
  Residual amustaline levels in pathogen-inactivated whole blood, 4 hr: BLOQ (BLOQ = Below Limit of Quantitation (e.g., < 0.75 nM))
[3]; Units 2 and 8, 25 mL sample removed at 24 hr into separate container, stored at RT, 6 hr of storage
  Residual amustaline levels in pathogen-inactivated whole blood, 6 hr: BLOQ (BLOQ = Below Limit of Quantitation (e.g., < 0.75 nM))
[3]; treatment mixtures from Units 2 and 8, transfer to a different container, further storage at room temperature
  residual amustaline after transfer to a different container and storage at room temperature: below the limit of quantitation

Source: US12728186B2, “Methods and kits for preparing pathogen-inactivated whole blood” (priority 2018, dated 2026)
